Experimental data: the supplement of paper PMC4862054

Key:
Conditions in all cases: incubation time: 72 h
BT-474 [1] = assay: normalised response (% of control), CellTox Green; higher = less cell death (100 = DMSO, 0 = benzethonium chloride kill control)
In short: (§1)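 For each plate, 0.1 % DMSO was set to 100 and a positive kill control to 0. Breast cancer cell lines (20 µl suspension) were seeded into 384-well plates already holding compound at 5 concentrations in 10-fold steps over a 10,000-fold range chosen per compound, and incubated for 72 h. CellTox Green fluorescence at 485/520 nm was read before CellTiter-Glo luminescence, which followed 10 min at room temperature. Each value is the normalised signal at one concentration.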

BT-549 [2] = assay: as above
In short: as §1

CAL-120 [3] = assay: as above
In short: as §1

CAL-148 [4] = assay: as above
In short: as §1

CAL-51 [5] = assay: as above
In short: as §1

CAL-85-1 [6] = assay: as above
In short: as §1

DU-4475 [7] = assay: as above
In short: as §1

HCC1143 [8] = assay: as above
In short: as §1

HCC1599 [9] = assay: as above
In short: as §1

HCC1937 [10] = assay: as above
In short: as §1

Hs578T [11] = assay: as above
In short: as §1

MDA-MB-231 [12] = assay: as above
In short: as §1

MDA-MB-453 [13] = assay: as above
In short: as §1

MDA-MB-468 [14] = assay: as above
In short: as §1

MFM-223 [15] = assay: as above
In short: as §1

BT-474 [16] = assay: normalised response (% of control), CellTiter-Glo; higher = more viable cells (100 = DMSO, 0 = benzethonium chloride kill control)
Method: (§2)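 DSRT, 72 h incubation, CellTox Green / CellTiter-Glo readout. Signal is normalised to DMSO and benzethonium chloride controls. Value is the normalised response at dose 3.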

BT-549 [17] = assay: as above
Method: as §2

CAL-120 [18] = assay: as above
Method: as §2

CAL-148 [19] = assay: as above
Method: as §2

CAL-51 [20] = assay: as above
Method: as §2

CAL-85-1 [21] = assay: as above
Method: as §2

DU-4475 [22] = assay: as above
Method: as §2

HCC1143 [23] = assay: as above
Method: as §2

HCC1599 [24] = assay: as above
Method: as §2

HCC1937 [25] = assay: as above
Method: as §2

HDQ-P1 [26] = assay: as above
Method: as §2

Hs578T [27] = assay: as above
Method: as §2

MCF-10A [28] = assay: as above
Method: as §2

MDA-MB-231 [29] = assay: as above
Method: as §2

MDA-MB-436 [30] = assay: as above
Method: as §2

MDA-MB-453 [31] = assay: as above
Method: as §2

MDA-MB-468 [32] = assay: as above
Method: as §2

MFM-223 [33] = assay: as above
Method: as §2

SK-BR-3 = assay: as above
Method: as §2

HDQ-P1 [34] = assay: normalised response (% of control), CellTox Green; higher = less cell death (100 = DMSO, 0 = benzethonium chloride kill control)
In short: as §1

MCF-10A [35] = assay: as above
In short: as §1

MDA-MB-436 [36] = assay: as above
In short: as §1

| Structure (SMILES) | normalised response (BT-474 [1]) [%] | normalised response (BT-549 [2]) [%] | normalised response (CAL-120 [3]) [%] | normalised response (CAL-148 [4]) [%] | normalised response (CAL-51 [5]) [%] | normalised response (CAL-85-1 [6]) [%] | normalised response (DU-4475 [7]) [%] | normalised response (HCC1143 [8]) [%] | normalised response (HCC1599 [9]) [%] | normalised response (HCC1937 [10]) [%] | normalised response (Hs578T [11]) [%] | normalised response (MDA-MB-231 [12]) [%] | normalised response (MDA-MB-453 [13]) [%] | normalised response (MDA-MB-468 [14]) [%] | normalised response (MFM-223 [15]) [%] | normalised response (BT-474 [16]) [%] | normalised response (BT-549 [17]) [%] | normalised response (CAL-120 [18]) [%] | normalised response (CAL-148 [19]) [%] | normalised response (CAL-51 [20]) [%] | normalised response (CAL-85-1 [21]) [%] | normalised response (DU-4475 [22]) [%] | normalised response (HCC1143 [23]) [%] | normalised response (HCC1599 [24]) [%] | normalised response (HCC1937 [25]) [%] | normalised response (HDQ-P1 [26]) [%] | normalised response (Hs578T [27]) [%] | normalised response (MCF-10A [28]) [%] | normalised response (MDA-MB-231 [29]) [%] | normalised response (MDA-MB-436 [30]) [%] | normalised response (MDA-MB-453 [31]) [%] | normalised response (MDA-MB-468 [32]) [%] | normalised response (MFM-223 [33]) [%] | normalised response (SK-BR-3) [%] | normalised response (HDQ-P1 [34]) [%] | normalised response (MCF-10A [35]) [%] | normalised response (MDA-MB-436 [36]) [%] |
| --- | --- | --- | --- | --- | --- | --- | --- | --- | --- | --- | --- | --- | --- | --- | --- | --- | --- | --- | --- | --- | --- | --- | --- | --- | --- | --- | --- | --- | --- | --- | --- | --- | --- | --- | --- | --- | --- |
| CC1(C)NC(=O)N(c2ccc([N+](=O)[O-])c(C(F)(F)F)c2)C1=O [Nilutamide] (100 nM) | 101 | 98.4 | 102 | 96.7 | 109 | 102 | 103 | 119 | 108 | 119 | 109 | 105 | 99.1 | 148 | 103 | 105 | 101 | 102 | 119 | 109 | 101 | 103 | 105 | 118 | 98.4 | 102 | 103 | 105 | 101 | 102 | 103 | 105 | 110 | 109 | – | – | – |
| NC(=O)Nc1cc(-c2cccc(F)c2)sc1C(=O)N[C@H]1CCCNC1 [AZD7762] (10 nM) | 101 | 96.5 | 99.8 | 96 | 113 | 100 | 99.5 | 105 | 116 | 107 | – | 104 | 105 | 104 | 104 | 105 | 101 | 106 | 106 | 106 | 97.5 | 102 | 110 | 91.3 | 95 | 94 | 94.5 | 99.5 | 104 | 104 | 81.9 | 102 | 103 | 103 | 108 | 102 | 91 |
| CCCCCCCCCCCCCCCCCCOP(=O)([O-])OC1CC[N+](C)(C)CC1 [Perifosine] (25 nM) | 102 | 97.1 | 103 | 103 | 93.7 | 109 | 104 | 89.7 | 97.9 | 88 | 105 | 92.4 | 99.7 | 95.6 | 93.5 | 101 | 101 | 109 | 88.8 | 96.8 | 98.5 | 96 | 101 | 101 | 103 | 108 | 100 | 105 | 105 | 104 | 87 | 100 | 93.4 | 91.3 | – | 106 | 112 |
| CO[C@H]1/C=C\C=C(/C)C(=O)NC2=CC(=O)C(NCCN(C)C)=C(C[C@@H](C)C[C@H](OC)[C@H](O)[C@@H](C)/C=C(\C)[C@@H]1OC(N)=O)C2=O [Alvespimycin] (10 nM) | 93.9 | 89.8 | 97.3 | 108 | 110 | 95.8 | 101 | 105 | 111 | 118 | – | 85.3 | 96.9 | 116 | 104 | 104 | 63.4 | 106 | 110 | 101 | 104 | 103 | 99 | 106 | 94.8 | 89.5 | 103 | 115 | 106 | 76.8 | 89.1 | 94.8 | 88.1 | 72.3 | 90.8 | 94.8 | 89.8 |
| COc1cc([C@@H]2c3cc4c(cc3[C@@H](O[C@@H]3O[C@@H]5CO[C@@H](C)O[C@H]5[C@H](O)[C@H]3O)[C@H]3COC(=O)[C@H]23)OCO4)cc(OC)c1O [Etoposide] (100 nM) | 101 | 92.4 | 106 | 92 | 112 | 95.2 | 98.8 | 98.7 | 110 | 111 | – | 112 | 102 | 56.9 | 104 | 99.9 | 94.6 | 102 | 103 | 107 | 102 | 82.9 | 100 | 110 | 94.9 | 102 | 111 | 106 | 120 | 98.3 | 113 | 100 | 110 | 109 | 92 | 75 | 107 |
| COc1cc2nccc(Oc3ccc(NC(=O)C4(C(=O)Nc5ccc(F)cc5)CC4)cc3)c2cc1OC [Cabozantinib] (10 nM) | 95.6 | 107 | 98.1 | 76 | 102 | 96.5 | 99.5 | 104 | 91.5 | 102 | 69.2 | – | 101 | 62.5 | 100 | 93.9 | 102 | 98 | 110 | 111 | 103 | 100 | 99.2 | 113 | 94.6 | 93.5 | 99.3 | 97.2 | 99.3 | 105 | 100 | 97.8 | 99.4 | 94.3 | – | 85.1 | 96.2 |
| Cn1c(Nc2ccc(C(F)(F)F)cc2)nc2cc(Oc3ccnc(-c4ncc(C(F)(F)F)[nH]4)c3)ccc21 [RAF265] (10 nM) | 96.2 | 98.1 | 101 | 103 | 92.7 | 106 | 103 | 116 | 107 | – | 98 | 104 | 108 | 158 | 103 | 107 | 99.5 | 107 | 113 | 83.3 | 99.6 | 105 | 102 | 116 | 100 | 99.2 | 106 | 118 | 110 | 109 | 106 | 102 | 105 | 108 | 52.6 | 64.3 | 90.1 |
| CN(N=O)C(=O)N[C@@H](C=O)[C@@H](O)[C@H](O)[C@H](O)CO [Streptozocin] (100 nM) | 103 | 107 | 107 | – | 105 | 107 | 105 | 114 | 104 | 73.6 | 52.8 | 113 | 104 | 124 | 75.2 | 102 | 100 | 109 | 107 | 106 | 104 | 102 | 106 | 104 | 99.8 | 107 | 109 | 109 | 112 | 101 | 103 | 98.8 | 103 | 102 | – | 64.2 | 111 |
| O=P1(NCCCl)OCCCN1CCCl (stereo not given) [Ifosfamide] (100 nM) | 100 | 112 | 98 | 90.8 | 90.4 | 110 | 97.9 | 74.1 | 95.1 | – | 56.1 | 87.4 | 89.3 | 194 | 97.8 | 97 | 102 | 94.3 | 92 | 68.5 | 95.1 | 95.3 | 99.7 | 101 | 98.2 | 98.9 | 96.8 | 97.9 | 91.8 | 94.9 | 88.8 | 94.8 | 91.2 | 89.5 | 88 | 102 | 102 |
